This is an account of results in patent publication US20240226107A1, “UBIQUITIN-SPECIFIC PROTEASE 1 (USP1) INHIBITOR” (SIMCERE ZAIMING PHARMACEUTICAL CO., LTD., priority 2021, published 2024).

Series [1] is described as follows: In vivo pharmacokinetics in SD rats. The note with it: male, rat, plasma. How it is done:
Using SD rats as test animals, drug concentrations in plasma of the rats at different times after intravenous injection and intragastric administration of the compounds provided in the present application were determined by LC/MS/MS. In vivo pharmacokinetic behaviors of the compounds provided in the present application in rats were investigated to evaluate pharmacokinetic characteristics of the compounds.
There were three healthy 6-8-week-old male SD rats in each group.
Intravenous administration: A certain amount of drug was weighed, and then 10 vol % N,N-dimethylacetamide, 33 vol % triethylene glycol, and 57 vol % physiological saline were added to prepare 1 mg/mL colorless clear and transparent liquid;
Intragastric administration: A certain amount of drug was weighed, and then 0.5 wt % hydroxypropyl methylcellulose, 0.1 vol % tween 80, and 99.6 vol % physiological saline were added to prepare 1 mg/mL white suspension.
After fasting overnight, the SD rats were dosed intravenously or intragastrically.
The compounds provided in the present application were administered intravenously to the rats, then 0.2 mL of blood was collected from jugular veins respectively at 0.083, 0.25, 0.5, 1, 2, 4, 8, and 24 h after the administration, and placed in a test tube containing EDTA-K2. The test tube was then centrifuged at 4000 rpm at 4° C. for 5 min to separate plasma, and the plasma was stored at −75° C. Alternatively, the compounds provided in the present application were administered intragastrically to the rats, then 0.2 mL of blood was collected from jugular veins respectively at 0.25, 0.5, 1, 2, 4, 8, and 24 h after the administration, and placed in a test tube containing EDTA-K2. The test tube was then centrifuged at 3500 rpm at 4° C. for 10 min to separate plasma, and the plasma was stored at −75° C.
The content of the compounds to be tested in rat plasma after intravenous administration or intragastric administration at different concentrations was determined: 30 μL of rat plasma at each time after administration was taken, 200 μL (50 ng/mL) of solution of internal standard dexamethasone in acetonitrile was added, then the resulting mixture was vortex-mixed for 30 s, and centrifuged at 4700 rpm at 4° C. for 15 min, the supernatant of plasma samples was diluted three times with water, and 2.0 μL of diluted solution was taken for LC-MS/MS.

Series [2] can be described thus: Metabolic stability in vitro in rat hepatocytes. It is filed as in vitro ADME. The note with it: read-out: Intrinsic clearance. On the procedure:
The concentration of each compound in the reaction system was measured by LC/MS/MS to calculate the intrinsic clearance of the compounds to be tested, and evaluate the metabolic stability in vitro in rat hepatocytes.
To the incubation plate, 198 μL of 0.5×10^6 cells/mL rat hepatocyte mixture and 2.0 μL of 100 μM compound to be tested or positive control were added to initiate reaction. Incubation was performed at 900 rpm at 37° C. […] Then the mixture was vortex-mixed for 5 min. […] Then 100 μL of supernatant of each compound was transferred to a 96-well sample plate, and 100 μL of purified water was added to dilute the sample. The resulting samples were quantified by ion chromatograms. The residual rate was calculated from peak areas of the compounds to be tested or the positive control. The slope k was determined using Microsoft Excel by linear regression of natural logarithm of the residual rate to the incubation time. The intrinsic clearance (in vitro CLint, μL/min/10^6 cells) was calculated from the slope value according to the following equation: […]

A short description of series [3]: Caco-2 permeability assay. It is filed as in vitro ADME. The note with it: human, pH 7.4, Caco-2, 5 μM, 2 h.
Method: The apparent permeability coefficient (Papp) of the analytical drug was determined by liquid chromatography-mass spectrometry (LC-MS/MS) through a Caco-2 cell model.
In this test example, Caco-2 cells were purchased from American Type Culture Collection (ATCC); 4-hydroxyethyl piperazine ethane sulfonic acid (HEPES) was purchased from Beijing Solarbio Science & Technology Co., Ltd.; Hanks' balanced salt solution (HBSS) and non-essential amino acids (NEAA) were purchased from ThermoFisher Scientific; penicillin, streptomycin, and trypsin/EDTA were purchased from Solarbio; fetal bovine serum (FBS) and DMEM medium were purchased from Corning; HTS-96-well Transwell plates and other sterile consumables were purchased from Corning; Millicell resistance measuring system was purchased from Millipore; Cellometer®K2 was purchased from Nexcelom Bioscience; Infinite 200 PRO microplate reader was purchased from Tecan; and MTS2/4 orbital shaker was purchased from IKA Labortechnik.
Caco-2 cells were cultured in a culture flask. […] Cells at a confluency of 70-90% can be used to inoculate the Transwell. Prior to cell inoculation, 50 μL of cell culture medium was added to each well of the upper Transwell chamber and 25 mL of cell culture medium was added to the lower plate. The plate was incubated in an incubator (37° C., 5% CO2) for 1 h, and then inoculated with cells. After cell digestion, the cell suspension was pipetted and transferred to a round bottom centrifuge tube for centrifugation at 120 g for 5 min. […] The medium was changed as follows: transwell chambers were separated from the receiver plate, medium in the receiver plate was discarded, then medium in the Transwell chambers was discarded, and finally, 75 μL of fresh medium was added to each chamber, and 25 mL of fresh medium was added to the receiver plate.
After approximately 14 days of culture, the Caco-2 cells reached the confluency and completed differentiation. In this case, the cells can be applied to permeability assay. The monolayer resistance was measured with a resistance meter (Millipore, USA) and the resistance per well was recorded. After the measurement, the Transwell plate was put back to the incubator. Calculation of resistance: measured resistance value (ohms)×membrane area (cm^2)=TEER value (ohm·cm^2); if TEER value <230 ohms·cm^2, the well can not be used for permeability assay.
In 900 mL of purified water, 2.38 g HEPES and 0.35 g sodium bicarbonate were dissolved, then 100 mL of 10×HBSS was added and stirred well, pH was adjusted to 7.4, and finally, the resulting solution was filtered to obtain 1 L of transport buffer (HBSS, 10 mM HEPES, pH 7.4).
A DMSO stock solution of 1 mM of compound to be tested was diluted with the transport buffer to obtain 5 μM test solution. The control compound digoxin or minoxidil was diluted with DMSO to 2 mM, and diluted with the transport buffer described above to 10 μM to obtain a control compound test solution. In addition, DMSO was also diluted with the transport buffer described above to a receiving end solution containing 0.5% DMSO.
The Transwell plate was removed from the incubator. Monolayer cell membranes were rinsed twice with the transport buffer (10 mM HEPES, pH 7.4) and incubated at 37° C. for 30 min.
The transport rate of the compound from the apical side to the basolateral side was determined. […]
The transport rate of the compound from the basolateral side to the apical side was determined.
Series [4] is described as follows: Metabolic stability in vitro in human hepatocytes. The note with it: read-out: Intrinsic clearance. Format: in vitro ADME. How it is done:
The concentration of each compound in the reaction system was measured by LC/MS/MS to calculate the intrinsic clearance of the compounds to be tested, and evaluate the metabolic stability in vitro in human hepatocytes.
To the incubation plate, 198 μL of 0.5×10^6 cells/mL human hepatocyte mixture and 2.0 μL of 100 μM compound to be tested or positive control were added to initiate reaction. Incubation was performed at 900 rpm at 37° C. […] Then the mixture was vortex-mixed for 5 min. […] Then 100 μL of supernatant of each compound was transferred to a 96-well sample plate, and 100 μL of purified water was added to dilute the sample.
The resulting samples were quantified by ion chromatograms. The residual rate was calculated from peak areas of the compounds to be tested or the positive control. The slope k was determined using Microsoft Excel by linear regression of natural logarithm of the residual rate to the incubation time. The intrinsic clearance (in vitro CLint, μL/min/10^6 cells) was calculated from the slope value according to the following equation: […]

In series [5] the target is PXR (Homo sapiens (Human), UniProt O75469). Nature of the series: Potential for PXR activation in DPX2 cells. It is filed as cell-based. The note with it: versus 20 μM rifampicin. How it is done:
DMSO solutions of the compounds to be tested and the control compound rifampicin solution were prepared, and diluted with Puracyp dosing medium (Puracyp, Cat. No: D-500-100) at 37° C. to respective test concentrations. The final concentrations of the compounds to be tested were 30 μM, 10 μM, and 1 μM, respectively, and the final concentration of rifampicin was 20 μM. The final concentration of DMSO in the test solution was 0.1%. In addition, 0.1% DMSO solution prepared with Puracyp dosing medium was used as a control.
DPX2 cells were suspended in Puracyp Culture medium (Puracyp, Cat No.: C-500-100) at a cell density of 4.5×10^5 cell/mL. Then, the suspension was placed on a 96-well culture plate at 100 μL/well for incubation at 37° C. for 24 h. The medium in appropriate wells of the 96-well culture plate was replaced (three times per well) by 100 μL of solution of the compounds to be tested and a control compound solution. After replacement, the plate was incubated at 37° C. for 24 h. The medium was then replaced (three times per well) by a newly prepared test solution of the compounds to be tested and a rifampicin test solution, and the plate was incubated at 37° C. for 24 h.
The medium in the 96-well culture plate was pipetted and washed twice with PBS. To each well, 50 μL of reagent diluted as required by CellTiter-Fluor™ Cell Viability Assay Kit (Promega, Cat. No.: G6082) was added, and incubated at 37° C. for 0.5 h. The 96-well plate was cooled to room temperature, and the fluorescence value of each well at 505 nm was measured in a fluorescence mode with a microplate reader at an excitation wavelength of 400 nm. Then, 50 μL of reagent prepared as required by One-Glo Luciferase Assay System (Promega, Cat. No.: E6120) was added to each well, and the mixture was incubated at room temperature for 5 min. The luminescence value of each well was read by using a lumen meter.
Normalized luciferase activity was determined by RLU/RFU, and the RLU and RFU of the samples were mean values of duplicate wells, respectively.
[formula] • Fold of activation: fold of activation of normalized luciferase; • RLUtest: measured luminescence value of test wells at each test dose of test compounds; • RLUvehicle: measured luminescence value of test wells when tested with the control DMSO solution; • RFUtest: measured fluorescence value of test wells at each test dose of test compounds; • RFUvehicle: measured fluorescence value of test wells when tested with the control DMSO solution.
The percentage of positive control was calculated as follows:
% Positive control=(fold activationtest compound−1)/(fold activationpositive control compound−1)×100% • % Positive control: percentage of PXR activation compared with 20 μM rifampicin activation at each test dose of test compounds; • Fold activationtest compound: fold of activation of normalized luciferase at each test dose of test compounds; • Fold activationpositive control compound: fold of activation of normalized luciferase of test compounds under 20 μM rifampicin.

For series [6], the target named is CYP2C19 (Homo sapiens (Human), UniProt P33261). Nature of the series: CYP enzyme inhibition in pooled human liver microsomes (S-mephenytoin). It is filed as in vitro ADME. On the procedure: (§1) Typical substrate metabolic responses of five major human CYP subtypes (CYP1A2, CYP2C9, CYP2C19, CYP2D6, CYP3A4) were evaluated using 150-donor pooled human liver microsomes (purchased from Corning, Cat. No.: 452117). The influence of different concentrations of each compound to be tested on metabolic responses of phenacetin (CYP1A2), diclofenac sodium (CYP2C9), S-mephenytoin (CYP2C19), bufuralol hydrochloride (CYP2D6), and midazolam (CYP3A4) was determined by liquid chromatography-mass spectrometry (LC/MS/MS). […] Then 200 μL of acetonitrile solution containing 3% formic acid and 40 nM internal standard verapamil was added and centrifuged at 4000 rpm for 50 min. The mixture was cooled on ice for 20 min and centrifuged at 4000 rpm for 20 min to precipitate the protein. Then 200 μL of supernatant was analyzed by LC-MS/MS. The peak area was calculated from the chromatogram. The residual activity ratio (%) was calculated according to the following equation: Peak area ratio=metabolite peak area/internal standard peak area Residual activity ratio (%)=peak area ratio of compounds-to-be-tested group/peak area ratio of blank group The half inhibitory concentration (IC50) for CYP was calculated by Excel XLfit 5.3.1.3.
Sequence of CYP2C19 (P33261 whole entry): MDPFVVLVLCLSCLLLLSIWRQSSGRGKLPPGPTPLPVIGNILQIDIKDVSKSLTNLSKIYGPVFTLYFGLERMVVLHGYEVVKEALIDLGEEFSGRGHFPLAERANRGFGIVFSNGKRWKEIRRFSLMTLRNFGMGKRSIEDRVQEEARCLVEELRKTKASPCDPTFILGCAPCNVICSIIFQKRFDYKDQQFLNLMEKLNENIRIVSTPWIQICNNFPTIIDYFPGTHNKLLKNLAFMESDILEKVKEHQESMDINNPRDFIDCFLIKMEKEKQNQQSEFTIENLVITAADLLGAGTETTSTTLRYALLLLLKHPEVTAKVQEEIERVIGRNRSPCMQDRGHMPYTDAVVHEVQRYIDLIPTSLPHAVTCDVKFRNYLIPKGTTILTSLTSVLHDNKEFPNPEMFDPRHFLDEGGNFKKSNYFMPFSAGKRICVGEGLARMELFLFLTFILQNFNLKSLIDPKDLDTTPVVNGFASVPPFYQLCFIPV
In general terms: Liver microsomes are vesicles of endoplasmic reticulum, rich in cytochrome P450 enzymes.

The target in series [7] is CYP2C9 (Homo sapiens (Human), UniProt P11712). In words: CYP enzyme inhibition in pooled human liver microsomes (diclofenac sodium). Format: in vitro ADME. How it is done: as §1
Sequence of CYP2C9 (P11712 whole entry): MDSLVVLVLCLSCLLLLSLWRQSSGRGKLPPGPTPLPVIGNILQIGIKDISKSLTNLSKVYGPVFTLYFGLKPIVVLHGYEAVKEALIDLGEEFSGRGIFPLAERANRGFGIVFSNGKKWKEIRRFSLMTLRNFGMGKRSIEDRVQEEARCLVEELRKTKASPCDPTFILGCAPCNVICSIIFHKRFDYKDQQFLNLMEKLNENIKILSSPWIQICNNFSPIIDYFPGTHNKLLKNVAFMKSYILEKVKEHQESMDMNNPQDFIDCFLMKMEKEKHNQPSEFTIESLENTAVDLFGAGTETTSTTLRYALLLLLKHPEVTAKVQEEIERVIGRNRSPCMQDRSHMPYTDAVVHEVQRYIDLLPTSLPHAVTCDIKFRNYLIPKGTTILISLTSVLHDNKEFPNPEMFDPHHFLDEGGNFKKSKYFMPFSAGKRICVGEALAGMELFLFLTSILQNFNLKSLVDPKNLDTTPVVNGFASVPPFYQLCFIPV
Series [8] concerns the target CYP2D6 (Homo sapiens (Human), UniProt P10635). Nature of the series: CYP enzyme inhibition in pooled human liver microsomes (bufuralol hydrochloride). Format: in vitro ADME. On the procedure: as §1
Series [9] addresses USP1 (Recombinant Human His6-USP1/His6-UAF1 Complex Protein) (Homo sapiens (Human), UniProt O94782). In words: In vitro activity assay for USP1 (Ub-CHOP2-Reporter deubiquitination assay). It is filed as biochemical. The note with it: 0.5 h incubation at room temperature, read-out: In vitro inhibitory activity of USP1 IC50. The method in brief:
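His6-USP1/His6-UAF1 complex was mixed with compound in 20 mM Tris-HCl pH 8.0, 2 mM CaCl2, 2 mM β-mercaptoethanol and 0.05% CHAPS. Ub-CHOP2 reporter system plus substrate was added, then incubated 0.5 h at room temperature. IC50 came from a four-parameter logistic fit.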

In series [10] the target is CYP3A4 (Homo sapiens (Human), UniProt P08684). Nature of the series: CYP enzyme inhibition in pooled human liver microsomes (midazolam). Format: in vitro ADME. How it is done:
as §1

Series [11] addresses CYP1A2 (Homo sapiens (Human), UniProt P05177). Nature of the series: CYP enzyme inhibition in pooled human liver microsomes (phenacetin). Format: in vitro ADME. On the procedure: as §1
The subject of series [12] is MDA-MB-436 cells.
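Throughout, for GI50: MDA-MB-436 proliferation over 7 days with compound, viability read as ATP luminescence (CellTiter-Glo), inhibition relative to DMSO-only wells, day 0 signal as background, GI50 from four-parameter fit.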

Sequence of PXR (O75469 whole entry): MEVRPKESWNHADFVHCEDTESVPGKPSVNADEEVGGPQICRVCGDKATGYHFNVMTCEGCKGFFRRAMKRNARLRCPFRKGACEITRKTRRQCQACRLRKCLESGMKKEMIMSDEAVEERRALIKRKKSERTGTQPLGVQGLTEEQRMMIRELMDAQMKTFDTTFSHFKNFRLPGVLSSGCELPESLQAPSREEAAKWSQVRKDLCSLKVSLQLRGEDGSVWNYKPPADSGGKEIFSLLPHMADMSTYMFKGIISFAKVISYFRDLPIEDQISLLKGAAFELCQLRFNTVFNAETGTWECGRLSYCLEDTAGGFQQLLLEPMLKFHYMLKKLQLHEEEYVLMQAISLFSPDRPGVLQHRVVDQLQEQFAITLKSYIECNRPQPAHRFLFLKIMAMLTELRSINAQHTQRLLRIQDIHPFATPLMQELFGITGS
Sequence of CYP2D6 (P10635 whole entry): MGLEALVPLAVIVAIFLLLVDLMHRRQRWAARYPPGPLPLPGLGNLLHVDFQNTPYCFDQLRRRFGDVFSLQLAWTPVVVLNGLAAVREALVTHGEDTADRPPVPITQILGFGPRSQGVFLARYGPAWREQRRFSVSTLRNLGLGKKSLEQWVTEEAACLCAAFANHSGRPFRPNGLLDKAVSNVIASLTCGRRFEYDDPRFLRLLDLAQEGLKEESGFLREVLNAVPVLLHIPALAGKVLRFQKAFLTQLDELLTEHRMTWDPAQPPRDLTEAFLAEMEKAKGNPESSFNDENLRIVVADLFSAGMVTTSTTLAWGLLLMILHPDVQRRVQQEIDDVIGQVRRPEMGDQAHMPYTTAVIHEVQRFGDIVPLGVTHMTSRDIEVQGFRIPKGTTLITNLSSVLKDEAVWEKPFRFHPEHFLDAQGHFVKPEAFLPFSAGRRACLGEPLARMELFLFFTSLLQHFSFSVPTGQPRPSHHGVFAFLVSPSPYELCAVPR
Sequence of USP1 (Recombinant Human His6-USP1/His6-UAF1 Complex Protein) (O94782 whole entry): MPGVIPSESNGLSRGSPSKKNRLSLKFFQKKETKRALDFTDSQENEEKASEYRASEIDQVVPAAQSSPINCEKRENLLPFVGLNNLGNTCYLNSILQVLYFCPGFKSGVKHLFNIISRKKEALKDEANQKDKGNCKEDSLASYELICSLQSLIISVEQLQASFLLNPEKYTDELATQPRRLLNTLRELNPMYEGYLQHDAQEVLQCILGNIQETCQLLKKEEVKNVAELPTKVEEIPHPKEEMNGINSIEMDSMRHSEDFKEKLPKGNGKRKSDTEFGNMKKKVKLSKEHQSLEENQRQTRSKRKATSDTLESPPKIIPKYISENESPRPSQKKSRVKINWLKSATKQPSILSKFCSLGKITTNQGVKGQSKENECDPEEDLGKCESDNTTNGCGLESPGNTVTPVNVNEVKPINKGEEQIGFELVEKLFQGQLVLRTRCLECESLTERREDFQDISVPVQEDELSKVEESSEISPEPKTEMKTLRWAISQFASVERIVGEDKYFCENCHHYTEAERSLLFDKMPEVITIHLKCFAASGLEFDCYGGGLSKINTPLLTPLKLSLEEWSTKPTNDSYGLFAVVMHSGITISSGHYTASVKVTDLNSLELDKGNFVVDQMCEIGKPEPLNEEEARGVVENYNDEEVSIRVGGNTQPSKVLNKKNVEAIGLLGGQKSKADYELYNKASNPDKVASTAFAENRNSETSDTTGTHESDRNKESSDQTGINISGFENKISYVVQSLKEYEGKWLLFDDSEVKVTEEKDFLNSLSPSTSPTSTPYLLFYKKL
Sequence of USP1 (Recombinant Human His6-USP1/His6-UAF1 Complex Protein) (Q8TAF3 whole entry partner): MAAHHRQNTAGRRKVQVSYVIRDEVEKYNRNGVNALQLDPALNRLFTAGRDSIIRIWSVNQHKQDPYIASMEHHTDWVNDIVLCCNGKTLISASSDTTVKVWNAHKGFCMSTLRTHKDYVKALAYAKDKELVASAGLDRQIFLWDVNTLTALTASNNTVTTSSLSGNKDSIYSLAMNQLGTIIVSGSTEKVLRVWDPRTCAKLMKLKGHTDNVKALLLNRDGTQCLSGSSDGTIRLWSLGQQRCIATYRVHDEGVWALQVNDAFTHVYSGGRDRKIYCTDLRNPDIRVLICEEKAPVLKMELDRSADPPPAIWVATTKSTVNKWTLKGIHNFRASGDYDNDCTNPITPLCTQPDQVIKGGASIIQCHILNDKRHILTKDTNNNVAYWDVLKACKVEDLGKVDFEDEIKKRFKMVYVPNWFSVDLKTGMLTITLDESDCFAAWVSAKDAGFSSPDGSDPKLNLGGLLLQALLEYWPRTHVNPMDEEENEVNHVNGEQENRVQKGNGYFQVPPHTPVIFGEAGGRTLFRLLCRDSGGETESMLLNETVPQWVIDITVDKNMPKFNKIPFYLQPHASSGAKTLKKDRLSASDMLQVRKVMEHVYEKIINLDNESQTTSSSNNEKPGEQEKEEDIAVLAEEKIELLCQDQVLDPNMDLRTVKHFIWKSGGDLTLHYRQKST
Sequence of CYP1A2 (P05177 whole entry): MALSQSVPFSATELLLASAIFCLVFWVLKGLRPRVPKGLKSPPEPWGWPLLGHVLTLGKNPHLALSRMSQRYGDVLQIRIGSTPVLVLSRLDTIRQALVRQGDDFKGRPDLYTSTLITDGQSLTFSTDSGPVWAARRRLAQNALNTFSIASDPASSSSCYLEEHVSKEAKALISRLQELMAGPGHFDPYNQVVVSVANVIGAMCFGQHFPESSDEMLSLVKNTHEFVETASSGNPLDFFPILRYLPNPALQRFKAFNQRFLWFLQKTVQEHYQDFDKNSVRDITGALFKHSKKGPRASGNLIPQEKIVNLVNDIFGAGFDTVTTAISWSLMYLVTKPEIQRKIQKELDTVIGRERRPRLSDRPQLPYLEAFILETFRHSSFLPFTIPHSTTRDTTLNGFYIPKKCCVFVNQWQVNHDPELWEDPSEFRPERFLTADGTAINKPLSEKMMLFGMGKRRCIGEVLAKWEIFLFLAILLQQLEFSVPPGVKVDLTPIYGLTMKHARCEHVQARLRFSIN
Sequence of CYP3A4 (P08684 whole entry): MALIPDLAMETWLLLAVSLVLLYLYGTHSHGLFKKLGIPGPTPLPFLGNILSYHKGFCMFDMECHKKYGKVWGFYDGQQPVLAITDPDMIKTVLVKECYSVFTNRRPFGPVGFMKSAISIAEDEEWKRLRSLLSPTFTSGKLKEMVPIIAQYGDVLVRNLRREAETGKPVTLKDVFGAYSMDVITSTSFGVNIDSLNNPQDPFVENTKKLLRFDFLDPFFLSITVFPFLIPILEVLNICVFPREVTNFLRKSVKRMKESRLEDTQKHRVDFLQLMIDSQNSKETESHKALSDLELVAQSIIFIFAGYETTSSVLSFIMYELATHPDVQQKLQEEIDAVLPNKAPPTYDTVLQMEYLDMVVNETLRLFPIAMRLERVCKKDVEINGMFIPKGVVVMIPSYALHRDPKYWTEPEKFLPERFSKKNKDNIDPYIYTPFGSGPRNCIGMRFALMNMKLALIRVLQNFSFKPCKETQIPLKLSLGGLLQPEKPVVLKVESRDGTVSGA

By clearance is commonly meant the rate of elimination divided by the concentration. The term bioavailability denotes the share of a dose that reaches the circulation, judged against a reference dose that is usually intravenous. As usually defined, the Papp A→B is the apparent permeability from the apical to the basolateral side of a cell layer. Read a low Papp A→B as slow passage. A word on the Papp B→A: it is how fast a substance crosses the layer from the basolateral side. Consider `COc1ncnc(C2CC2)c1-c1ncc2c(n1)N(Cc1ccc(-c3nc(C(F)(F)F)cn3C)cc1)C(=O)OC2(C)C` [Compound 50, 7-(4-cyclopropyl-6-methoxypyrimidin-5-yl)-4,4-dimethyl-1-(4-(1-methyl-4-(trifluoromethyl)-1H-imidazol-2-yl)benzyl)-1,4-dihydro-2H-pyrimido[4,5-d][1,3]oxazin-2-one], for which, in series [1] (IV 2 mg/kg, read-out: Apparent volume of distribution Vss_obs), the Vd was 4.1 L/kg. The clearance in [1] (IV 2 mg/kg, read-out: Clearance CL_obs) worked out at 11.4 mL/min/kg. The half-life in series [1] (IV 2 mg/kg, read-out: Half-life period T1/2 (converted)) is 6 h. In addition, the bioavailability in series [1] (PO 5 mg/kg versus IV, read-out: Bioavailability F) was 47.2%. Moreover, the Cmax in series [1] (PO 5 mg/kg, read-out: Maximum plasma concentration Cmax) worked out at 235 ng/mL. Further, the figures for the hepatocyte CLint at 1 μM in series [2] and in series [4] were 4 µL/min/1e6 cells and under 1 µL/min/1e6 cells, respectively. The compound further showed a Papp A→B at 2 h, 5 μM in series [3] (apical to basolateral) of 7.5 ×10⁻⁶ cm/s. The basolateral-to-apical permeability (Papp B→A) at 2 h, 5 μM in series [3] (basolateral to apical) was 17.3 ×10⁻⁶ cm/s. Moreover, the “PXR activation (% Positive control)” value in series [5] (30 μM) is reported as 32.8 % Positive control.
One may read the IC50 as the midpoint of a concentration-inhibition curve. What is called GI50 is the concentration giving 50% growth inhibition. As to `COc1ncnc(C2CC2)c1-c1ncc2c(n1)N(Cc1ccc(-n3nc(C(F)(F)F)cc3C)cc1)C(=O)OC2(C)C` [Compound 74, 7-(4-cyclopropyl-6-methoxypyrimidin-5-yl)-4,4-dimethyl-1-(4-(5-methyl-3-(trifluoromethyl)-1H-pyrazol-1-yl)benzyl)-1,4-dihydro-2H-pyrimido[4,5-d][1,3]oxazin-2-one], the IC50 was 10.2 µM in [6]; 4.5 µM in series [7]; over 30 µM in [8]; 0.0173 µM in series [9]; over 30 µM in series [10]; over 30 µM in series [11]. It took 0.0307 µM to inhibit growth in series [12] by half (GI50). Besides, the “PXR activation (% Positive control)” value in series [5] (10 μM) came out at 13.2 % Positive control.
